Laboratory results from US11827917B1, “Methods for the conversion of fermentable sugars to ethanol” (Colorado State University Research Foundation, priority 2020, dated 2023).

Test system: S. cerevisiae JAY 270
Test: Continuous two-column immobilized cell bioreactor in YPD medium
Format: cell-based, Saccharomyces cerevisiae
Conditions: Phase 2, 0.2% PheOH in feed
From the text: The immobilized cell reactor system consisted of two glass cylindrical columns, a vessel with agitation containing fermentation medium (controlled temperature, pH, and dissolved oxygen), and a pump for delivery of the feed to the column. The glass column had dimensions of OD=32, ID=29, and L=160 mm; screens were placed above and below the alginate bead layer to retain the cells in the column. YPD medium with 0.6 g/L CaCl2·2H2O was used in the continuous fermentation. Two columns (a well-mixed reactor column and a packed-bed column) were used in this test (FIG. 5). The total volume of immobilized cells used to fill the column was […] and the medium volume was 20 mL in each column. The total medium volume in the system was 60 mL, including the medium in both columns and in the vessel. The flow rate of fresh medium was 2.3 mL/min.
The system was first fed with YPD medium for 20 hours to activate the immobilized cells. After 20 hours, samples were collected at different times points over 24 hours from both Column 1 (well-mixed reactor) and the entire system. Then YPD medium containing 0.2% PheOH was used to replace the YPD medium for another 26 hours. After that, the medium was changed back to YPD medium for 6 hours. The content of glucose and ethanol in samples was analyzed using HPLC.
Owing to the limited supply of algal hydrolysate, the test was conducted using YPD medium. The test was conducted with 0.2% PheOH as the growth inhibitor. For 20 hours prior to the start of the experiment, the system was fed YPD medium without PheOH to ensure that the cells were fully active following their immobilization. The experiment was then conducted with three phases: • (1) 24 hours, during which the feed was YPD medium without PheOH. The start of this phase represented time zero of the experiment. • (2) 26 hours, during which the feed was YPD medium with 0.2% PheOH. • (3) 6 hours, during which the feed was YPD medium without PheOH.

Compound: OCCc1ccccc1 [PheOH, 2-phenylethanol]
- Ethanol productivity (C1): 21 g/L·h
- Ethanol yield (C1): about 0.45
- Ethanol yield (C1+C2): ~0.43
- Glucose conversion (C1+C2): 91%
- Glucose conversion (after C1): 60%
- Ethanol productivity (whole system): 21 g/L·h
